{
  "source": "ChEMBL document CHEMBL2151007",
  "about": "“Total Syntheses and Cytotoxicity of (R)- and (S)-Boehmeriasin A” (ACS Med Chem Lett, 2011)",
  "key": {"[1]": {"test_system": "MCF7", "test": "Cytotoxicity against human MCF7 cells after 48 hrs by Alamar blue assay", "assay_type": "functional, cell-based", "conditions": "MCF7, 48 h"}, "[2]": {"test_system": "MCF7", "test": "Cytotoxicity against human MCF7 cells", "assay_type": "functional"}, "[3]": {"test": "Cytotoxicity against human NCI-ADR-RES cells after 48 hrs by Alamar blue assay", "assay_type": "functional, cell-based"}, "[4]": {"test_system": "COLO 205", "test": "Cytotoxicity against human COLO205 cells after 48 hrs by Alamar blue assay", "assay_type": "functional, cell-based", "conditions": "COLO 205, 48 h"}, "[5]": {"test_system": "COLO 205", "test": "Cytotoxicity against human COLO205 cells", "assay_type": "functional"}},
  "data": [
    {"smiles": "COc1ccc2c3c(c4cc(OC)c(OC)cc4c2c1)CN1CCCC[C@@H]1C3", "values": [
      {"measurement": "IC50", "setting": "[1]", "result": 43.4, "unit": "nM"},
      {"measurement": "GI50", "setting": "[2]", "result": 13, "unit": "nM"},
      {"measurement": "IC50", "setting": "[3]", "result": 36.7, "unit": "nM"},
      {"measurement": "IC50", "setting": "[4]", "result": 4.18, "unit": "nM"},
      {"measurement": "GI50", "setting": "[5]", "result": 0.8, "unit": "nM"}
    ]},
    {"smiles": "COc1ccc2c3c(c4cc(OC)c(OC)cc4c2c1)CN1CCCC[C@H]1C3", "values": [
      {"measurement": "IC50", "setting": "[1]", "result": 92.7, "unit": "nM"},
      {"measurement": "IC50", "setting": "[3]", "result": 434, "unit": "nM"},
      {"measurement": "IC50", "setting": "[4]", "result": 103, "unit": "nM"}
    ]},
    {"smiles": "CC(=O)O[C@H]1C(=O)[C@@]2(C)[C@H]([C@H](OC(=O)c3ccccc3)[C@]3(O)C[C@H](OC(=O)[C@H](O)[C@@H](NC(=O)c4ccccc4)c4ccccc4)C(C)=C1C3(C)C)[C@]1(OC(C)=O)CO[C@@H]1C[C@@H]2O", "note": "[PACLITAXEL]", "values": [
      {"measurement": "IC50", "setting": "[1]", "result": 1.62, "unit": "nM"},
      {"measurement": "IC50", "setting": "[3]", "result": "> 6400", "unit": "nM"},
      {"measurement": "IC50", "setting": "[4]", "result": 3.31, "unit": "nM"}
    ]}
  ]
}
